Several values for one entry are separate records, joined by “and”; a condition that tells them apart may be missing. Equal values may be shown once. Activity calls are given as the source filed them.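 The calls were made as follows: active = compounds giving half or more protection of infected cells from virus-caused growth loss, again on retest; inactive = the rest.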 Where a SMILES comes first, the peptide text is derived from it.
Tested on: CEM cells HIV-1 protection, formazan growth assay
Experiment: NCI AIDS Antiviral Assay
Conditions: for IC50: measured here: growth of uninfected CEM cells
Outline: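 Protection of CEM cells against HIV-1 measured as cell growth via soluble formazan read-out, with five concentrations tested on both infected and uninfected cells; failure to protect may reflect toxicity.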

Compound	EC50	IC50	outcome
CCOC(=O)C(NC(=O)CC)(Nc1ccc(S(=O)(=O)Nc2ccc(OC)nn2)cc1)C(F)(F)F (stereo not drawn)	> 200 µM	> 200 µM	
COc1ccc(C2C3=C(CCCC3=O)N(c3ccccc3)C3=C2C(=O)CCC3)cc1	> 200 µM	> 200 µM	
C/C(=N\NS(=O)(=O)c1ccccc1)c1ccc(Cl)c(Cl)c1			inactive
O=C(O)c1cc(N=C=S)ccc1-c1c2ccc(=O)cc-2oc2cc(O)ccc12	43.7 µM and 44.7 µM	316 µM and > 100 µM	
O=C1CC(C(=O)N2CCCCC2)n2c(=O)n(-c3ccccc3)c(=O)n2C1 (stereo not drawn)	> 200 µM	> 200 µM	
C=C1CCCCCCCCCCC12SCCC2CCCCSC (stereo not drawn)	> 200 µM	120 µM	
COc1ccc2c(c1)c1c(n2CCN2CCCCC2)-c2ccccc2CC1	> 200 µM	13.2 µM	
CC(C)COC(=O)NC1C(=O)N2C1SC(C)(C)C2C(=O)O (stereo not drawn) (tested in a mixture with another compound)	87.1 µM	> 200 µM	
S=C1CCCCCN1	> 1950 µM	1020 µM	
O=C(NC(=O)c1ccccc1)OC(c1ccccc1)C1CO1 (stereo not drawn)	> 200 µM	> 200 µM	
O=C(O)c1ccc(NNC(=O)c2cccc3c(=O)c4ccccc4[nH]c23)cc1	> 200 µM	74.1 µM	
O/N=C(\CSSC/C(=N/O)c1ccc(Cl)cc1)c1ccc(Cl)cc1	> 200 µM	10.7 µM	
CCCCCCCCCCCCCCCCCC(=O)OCC(CN(C)CCN(C)C)OC(=O)CCCCCCCCCCCCCCCCC (stereo not drawn)			inactive
O=C1C(=Nc2ccccc2)Oc2cc(O)ccc21	> 200 µM	17.8 µM	
COc1ccc2c(c1)-c1nn(CCCN(C)C)c3ccc([N+](=O)[O-])c(c13)N2	> 537 µM	0.17 µM	inactive
Clc1ccc(OCc2nnc(CCCCCCCCc3nnc(COc4ccc(Cl)cc4Cl)n3Nc3ccccc3)n2Nc2ccccc2)c(Cl)c1	> 0.501 µM	> 0.501 µM	
CN(C)CC(=O)C1C(=O)N(C)c2ccccc21 (stereo not drawn)	> 200 µM	> 200 µM	
O=C1CS(=O)(=O)C(c2cccc(F)c2)N1N1C(=O)CS(=O)(=O)C1c1cccc(F)c1 (stereo not drawn)	> 200 µM	> 200 µM	
COC(OC)c1c2c(O)c3c(O)c(C)c4c(c3c1O)C(=O)C(C)(O/C=C/C(OC)C(C)C(OC(C)=O)C(C)C(O)C(C)C(O)C(C)/C=C/C=C(/C)C(=O)N2)O4 (stereo not drawn)	> 200 µM	25.1 µM	
C[C@@H](CC(=O)O)OC1OC(COC(=O)C(C)(C)C)C(OC(=O)C(C)(C)C)C(OC(=O)C(C)(C)C)C1OC(=O)C(C)(C)C (stereo partly drawn)	> 200 µM	27.5 µM	
O=C(O)CC1C(=O)OC2C3COC(=O)c4cc(O)c(O)c(O)c4-c4c(cc(O)c(O)c4O)C(=O)OC2C(OC(=O)c2cc(O)c(O)c4c2C1C(O)C(=O)O4)C(OC(=O)c1cc(O)c(O)c(O)c1)O3 (stereo not drawn)	3.31 µM	18.6 µM	
Cc1n[nH]c2ccccc2c1=O	> 676 µM	490 µM	
CC1(C)COC2(OC1)C1=NS(=O)(=O)CC13CCC2C3(C)C (stereo not drawn)	> 57.5 µM	> 57.5 µM	
Cn1c(=S)sc2nc3ccccc3n2c1=S	> 200 µM	10.7 µM	
NCCN.NCCN.O=C([O-])CCl.O=C([O-])CCl.[Co+3].[O-][Cl+3]([O-])([O-])[O-]			inactive
O=[N+]([O-])c1ccc(Sc2c3ccccc3nc3ccccc23)cn1	> 100 µM	7.24 µM	
Cc1cc(N(CCC#N)CCC#N)ccc1/C(N=Nc1ccccc1)=N\NC(=O)c1ccccc1	> 200 µM	13.8 µM	

Compound	EC50	IC50	outcome
CCOc1cc2c(cc1O)/C(=N/NS(=O)(=O)c1ccc(C)cc1)C[C@@H]1[C@@H]2CC[C@]2(C)[C@@H](O)CC[C@@H]12	> 200 µM	0.229 µM	
Cn1c(N)c2c(=O)n(C)c3c(c2c(C#N)c1=O)CCSc1ccccc1-3	> 9.33 µM	> 9.33 µM	
CCCCCCCC(=O)OC[C@H](C[As](=O)(O)O)OC(=O)CCCCCCC	> 200 µM	7.76 µM	
CN(C)CCNc1ccc(CO)c2sc3ccc(O)cc3c(=O)c12	> 2 µM	0.105 µM	
CN(Cc1ccccc1)C(=NC#N)N(Cc1ccccc1)Cc1ccccc1	> 19.5 µM	> 19.5 µM	
Cc1ccc(C)c(NC(=O)C(=O)C(C2C(C)CC(=O)C2CC(=O)O)[N+](=O)[O-])c1 (stereo not drawn)	> 646 µM	> 646 µM	
Cc1ccc(C(=O)Nc2ccc(S(=O)(=O)O)c3cc(S(=O)(=O)O)cc(S(=O)(=O)O)c23)cc1NC(=O)c1cccc(NC(=O)Nc2cccc(C(=O)Nc3cc(C(=O)Nc4ccc(S(=O)(=O)O)c5cc(S(=O)(=O)O)cc(S(=O)(=O)O)c45)ccc3C)c2)c1	34.7 µM	174 µM	
COc1cc(-c2oc3c(OC)c(OC)c(OC)c(OC)c3c(=O)c2OC)cc(OC)c1OC	> 200 µM	17.8 µM	
Nc1ccc(-c2nc3ccc(Cc4ccc5nc(-c6ccc(N)cc6)oc5c4)cc3o2)cc1	107 µM	> 200 µM	
CCS(=O)(=O)c1cc(=O)[nH]c(=O)[nH]1	100 µM	240 µM	
N=c1ccn2c(n1)OC1C(OP(=O)(O)O)C(CO)OC12 (stereo not drawn)	> 200 µM	0.437 µM	
COc1ccc(-c2noc(=O)c3ccccc23)cc1			inactive
CCOC(=O)C1CCCC1S(=O)(=O)c1ccc(C)cc1 (stereo not drawn)	> 200 µM	> 200 µM	
S=c1[nH]nc(-c2ccccc2Cl)o1	> 200 µM	195 µM	
N#C[C@@]12CCCC(=O)[C@@H]1[C@H]1CCC[C@H]12	> 200 µM	77.6 µM	
O=C([O-])C(=O)[N-]CCC[N-]C(=O)C(=O)[N-]CCC[N-]C(=O)C(=O)[O-].[Cu+2].[Cu+2].[Na+]	> 200 µM	17 µM	
BrC1=CCC23CC=C(Br)[C@H]4CC2(COC3)C[C@@H]1O4 (stereo partly drawn)	> 200 µM	25.1 µM	
N#C/C(=C\c1ccccc1[N+](=O)[O-])C(=O)O	> 603 µM	363 µM	
COc1c2c(c3c(c1CCC(=O)O)OC(C)(C)C=C3)OC(C)(C)C=C2	> 200 µM	138 µM	
C[CH2][Sn]([CH2]C)([O]C(=O)c1c(F)cccc1F)[O][Sn]([CH2]C)([CH2]C)[O]C(=O)c1c(F)cccc1F	> 72.4 µM	4.79 µM	
O=S(=O)(Cc1ccccc1)CS(=O)(=O)Cc1ccccc1	> 77.6 µM	> 77.6 µM	
COc1c(OC)c(O)c2c(=O)c(OC)c(-c3ccc4c(c3)OCO4)oc2c1O	> 200 µM	74.1 µM	
Cc1ccc(Nc2ccc3c4c(cc(=O)n3C)-c3ccccc3C(=O)c24)c(S(=O)(=O)O)c1	> 174 µM	> 174 µM	
CC(=O)Nc1ccc(-c2nnc(SCC(=O)Nc3cccc(C)c3)o2)cc1	> 67.6 µM	11.7 µM	
COc1ccc2c(c1)CN([C@@H](C)[C@H]1CC[C@H]3[C@@H]4CC[C@H]5C[C@@H](O)CC[C@]5(C)[C@H]4CC[C@]13C)CO2	> 61.7 µM	3.16 µM	
N#Cc1c(-c2cccc3ccccc23)c2c([nH]c1=S)CCCC2	> 79.4 µM	34.7 µM	
COc1ccc(OC)c2c(C(C)=O)cccc12	> 200 µM	97.7 µM	

Compound	EC50	IC50	outcome
CCCCCCCCCCCCCCCCCCC(C(=O)O)C(=O)O	> 708 µM	347 µM	
Cc1cc(O)c(/C=N/C(=S)Nc2ccccc2)c(=O)o1	> 200 µM	> 200 µM	
COc1ccc(C2CC(=O)c3ccccc3O2)cc1 (stereo not drawn)	> 200 µM	97.7 µM	
Clc1cccc2nn3ccnc3n12	> 955 µM	490 µM	
O=C1/C(=C/c2ccccc2F)Cc2ccccc21	> 21.9 µM	> 21.9 µM	
O=NN1C(c2ccccc2)CCCC1c1ccccc1 (stereo not drawn)	> 51.3 µM	> 51.3 µM	
N#Cc1cc2c(cc1Cl)Sc1nccn1S2(=O)=O	> 200 µM	0.851 µM	
S=c1sc2c(s1)SCCCCSCCCCSc1sc(=S)sc1SCCCCSCCCCS2	> 200 µM	> 200 µM	
COC(=O)C(C(=O)C(=O)Nc1cccc(OC)c1)c1cnc2ccccc2n1 (stereo not drawn)	> 69.2 µM	> 69.2 µM	
O=C(NC/C=C/Br)NC1CCNc2ccccc21 (stereo not drawn)	> 200 µM	14.1 µM	
O=C1NC(Cc2ccc(O)c(O)c2)C(=O)N2CCCC12 (stereo not drawn)	> 200 µM	> 200 µM	
CCN(CC)C(=S)[S][Bi]([S]C(=S)N(CC)CC)[S]C(=S)N(CC)CC	> 7.94 µM	0.11 µM	
COC(=O)[C@@H]1O[C@]12C(CO[Si](C)(C)C(C)(C)C)OC(n1ccc(=O)[nH]c1=O)C2O[Si](C)(C)C(C)(C)C (stereo partly drawn)	> 200 µM	9.77 µM	
COc1ccc2c(c1)[n+]([O-])c(/C(C)=N/NC(=O)c1ccccc1O)c(C)[n+]2[O-]	> 245 µM	> 245 µM	
O=C1CC(c2ccccc2)S(=O)c2ccccc2N1 (stereo not drawn)	> 200 µM	> 200 µM	
C1CSCCSCCS1	> 39.8 µM	> 39.8 µM	
C1=C2/CC[C@H](Sc3ccccc3)[C@H]2C2(CCCCC/1)OCCO2	> 15.8 µM	> 15.8 µM	
CC(C)(C)C1=CC(=N/N=c2\scc(-c3ccccc3)n2-c2ccccc2)C=C(C(C)(C)C)C1=O	> 15.1 µM	> 15.1 µM	
Cc1nc2c(c(=O)[nH]1)S/C(=C(/C#N)c1nc3ccccc3[nH]1)N2c1ccccc1	> 3.63 µM	> 3.63 µM	
CC(C)CC(NC(=O)C(Cc1ccc(O)cc1)NC(=O)C(CO)NC(=O)C(CCC(=O)O)NC(=O)C1CCCN1C(=O)C(CC(C)C)NC(=O)C(C)NC(=O)CNC(=O)C(N)CCC(=O)O)C(=O)NC(Cc1c[nH]c2ccccc12)C(=O)O (stereo not drawn) (H-EGALPESYLW-OH; configuration not given here)			inactive
CCCCN(CCCC)C1=Nc2ccccc2-n2c(nnc2C(=O)OCC)C1	> 200 µM	41.7 µM	
CO/C(N)=C(\C#N)N=Cc1ccco1	> 200 µM	191 µM	
CN(NC(=O)/C(=C/c1cc(Cl)cc(Cl)c1O)NC(=O)c1ccccc1)c1cnn(-c2ccccc2)c(=O)c1Cl	> 200 µM	37.2 µM	
CC(C)(Oc1ccc(Cl)cc1)C(=O)N(C(=O)N1CCC(c2ccccc2)CC1)c1ccccc1	> 200 µM	7.41 µM	
O=[N+]([O-])CC(SCc1ccccc1)c1ccc2c(c1)OCO2 (stereo not drawn)			inactive
